Legend:
[1] = Body weight (and food/water intake) of MRL/lpr lupus mice; format: in vivo, MRL/lpr mouse
Protocol: The MRL/lpr mouse model of lupus was chosen to study the effects of SDG on experimental nephritis since it represents the human disease in terms of immune and inflammatory reactions, and age-related renal function deterioration leading to progressive glomerular scarring. Mice were obtained at 5 weeks of age from Jackson Laboratories, Me., U.S.A., and acclimatized for one week. From 6 weeks of age onwards, all groups were gavaged with 200 μl/day of water. The appropriate amount of SDG was dissolved in the water to administer either the low-dose (600 μg/day) or the high-dose (1200 μg/day) of SDG. This example illustrates the effect of SDG on the body weight of MRL/lpr lupus mice in compared to the control group. The daily dosage was administered over a 17-week period (6 to 22 weeks of age).

[2] = tested on: MRL/lpr mouse model of lupus; experiment: Onset and prevalence of proteinuria (Albustix) in MRL/lpr lupus mice; format: in vivo
Protocol: (§1) The MRL/lpr mouse model of lupus was chosen to study the effects of SDG on experimental nephritis since it represents the human disease in terms of immune and inflammatory reactions, and age-related renal function deterioration leading to progressive glomerular scarring.
(§2) Mice were obtained at 5 weeks of age from Jackson Laboratories, Me., U.S.A., and acclimatized for one week. From 6 weeks of age onwards, all groups were gavaged with 200 μl/day of water. The appropriate amount of SDG was dissolved in the water to administer either the low-dose (600 μg/day) or the high-dose (1200 μg/day) of SDG.
Gavaging was commenced at the age of 6 weeks in all groups.

[3] = tested on: MRL/lpr mouse model of lupus; experiment: Glomerular filtration rate (14C-inulin clearance) in MRL/lpr mice; format: in vivo
Protocol: as §1, §2
This example illustrates the effect of SDG on the glomerular filtration rate (GFR) assessed by ^14 C-inulin clearance.

[4] = tested on: MRL/lpr mouse model of lupus; experiment: Cervical lymph node weight in MRL/lpr mice (lymphadenopathy); format: in vivo; conditions: for cervical lymph node weights: n = 10
Protocol: as §1, §2
We therefore examined the effects of low and high dosages of SDG on a deep cervical lymph node in these animals.
The data was non-normally distributed therefore, a non parametric (Kruskal-Wallis) statistical test was used.

[5] = tested on: MRL/lpr mouse model of lupus; experiment: Spleen weight index in MRL/lpr mice (splenomegaly); format: in vivo; conditions: for Spleen Weight/Body Weight Ratio (×100): n = 10
Protocol: as §1, §2
We therefore examined the effects of low and high dosages of SDG on spleen weight. The spleen weight index was obtained as a ratio of spleen to body weight (×100).
Data analyzed by ANOVA followed by Bonferroni t-tests

[6] = Gut absorption/conversion of SDG after oral intake; format: in vivo; conditions: human or animal
From the text: Enterodiol and enterolactone are trivially referred to as lignans and contain a structural backbone of dibenzylbutane. The most abundant lignan detected in flax is secoisolariciresinol diglucoside (SDG).
The secoisolariciresinol (Seco) may be used per se or in the form of secoisolariciresinol diglucoside (SDG).

[7] = cited from earlier work
[8] = relative to Seco; cited from earlier work
[9] = tested on: LDL cholesterol, cell mediated immunity, PAF production by PMN leucocytes, platelet aggregation; conditions: cited from earlier work
[10] = Lignan content of urine of mice gavaged with SDG; conditions: after oral SDG 0.6, 1.2 and 4.8 mg/mouse (FIG. 1)
Protocol: The mice were dosed with the SDG in amounts of 0.6, 1.2 and 4.8 mg/mouse. Urine samples from the mice were then analysed for lignans.

[11] = High-Lignan gp (1200 μg/day), age wk9
[12] = High-Lignan gp (1200 μg/day), age wk11
[13] = High-Lignan gp (1200 μg/day), age wk13
[14] = High-Lignan gp (1200 μg/day), age wk15
[15] = High-Lignan gp (1200 μg/day), age wk17
[16] = High-Lignan gp (1200 μg/day), age wk19
[17] = High-Lignan gp (1200 μg/day), age wk21
[18] = Low-Lignan gp (600 μg/day), age wk9
[19] = Low-Lignan gp (600 μg/day), age wk11
[20] = Low-Lignan gp (600 μg/day), age wk13
[21] = Low-Lignan gp (600 μg/day), age wk15
[22] = Low-Lignan gp (600 μg/day), age wk17
[23] = Low-Lignan gp (600 μg/day), age wk19
[24] = Low-Lignan gp (600 μg/day), age wk21

For `COc1cc(C[C@@H](CO[C@@H]2O[C@H](CO)[C@@H](O)[C@H](O)[C@H]2O)[C@H](CO[C@@H]2O[C@H](CO)[C@@H](O)[C@H](O)[C@H]2O)Cc2ccc(O)c(OC)c2)ccc1O` [SDG, secoisolariciresinol diglucoside], the food intake ([1]; 600 and 1200 μg/day) was “no significant difference”, the water intake ([1]; 600 and 1200 μg/day) was “no significant difference” and the “body weight gain in the different treatment groups” value ([1]; 600 and 1200 μg/day, 6 to 22 weeks of age) was “no significant difference”. For the same molecule, the “Body Weight” value ([1]; High-Lignan gp (1200 μg/day), age w22) was 38 ± 3 g, the “Body Weight” value ([1]; High-Lignan gp (1200 μg/day), age wk5 (before gavage, which began at 6 weeks)) was 25 ± 2 g and the “Body Weight” value ([1]; High-Lignan gp (1200 μg/day), age wk7) was 26 ± 2 g. For the same molecule, the “Body Weight” value [1, 11] was 27 ± 2 g, the “Body Weight” value [1, 12] was 29 ± 2 g and the “Body Weight” value [1, 13] was 31 ± 3 g. The “Body Weight” value [1, 14] was 34 ± 3 g, the “Body Weight” value [1, 15] was 37 ± 3 g and the “Body Weight” value [1, 16] was 38 ± 3 g. For the same molecule, the “Body Weight” value [1, 17] was 39 ± 3 g, the “Body Weight” value ([1]; Low-Lignan gp (600 μg/day), age w22) was 38 ± 3 g and the “Body Weight” value ([1]; Low-Lignan gp (600 μg/day), age wk5 (before gavage, which began at 6 weeks)) was 25 ± 2 g. For the same molecule, the “Body Weight” value ([1]; Low-Lignan gp (600 μg/day), age wk7) was 26 ± 3 g, the “Body Weight” value [1, 18] was 27 ± 3 g and the “Body Weight” value [1, 19] was 29 ± 3 g. The “Body Weight” value [1, 20] was 31 ± 3 g, the “Body Weight” value [1, 21] was 33 ± 3 g and the “Body Weight” value [1, 22] was 36 ± 3 g. For the same molecule, the “Body Weight” value [1, 23] was 37 ± 3 g, the “Body Weight” value [1, 24] was 38 ± 4 g and the “% of mice with ≥ 2 proteinuria on Albustix” value (shortened to “% of mice”) [2, 11] was 0%. For the same molecule, the “% of mice” value ([2]; High-Lignan gp (1200 μg/day), age wk 10) was 0%, the “% of mice” value [2, 12] was 4% and the “% of mice” value ([2]; High-Lignan gp (1200 μg/day), age wk 12) was 4%. The “% of mice” value [2, 13] was 4%, the “% of mice” value ([2]; High-Lignan gp (1200 μg/day), age wk 14) was 4% and the “% of mice” value [2, 14] was 7%. For the same molecule, the “% of mice” value ([2]; High-Lignan gp (1200 μg/day), age wk 16) was 7%, the “% of mice” value [2, 15] was 7% and the “% of mice” value ([2]; High-Lignan gp (1200 μg/day), age wk 18) was 21%. The “% of mice” value [2, 16] was 36%, the “% of mice” value ([2]; High-Lignan gp (1200 μg/day), age wk 20) was 50% and the “% of mice” value [2, 17] was 43%. For the same molecule, the “% of mice” value ([2]; High-Lignan gp (1200 μg/day), age wks 6-8) was 0%, the “% of mice” value [2, 18] was 0% and the “% of mice” value ([2]; Low-Lignan gp (600 μg/day), age wk 10) was 0%. For the same molecule, the “% of mice” value [2, 19] was 0%, the “% of mice” value ([2]; Low-Lignan gp (600 μg/day), age wk 12) was 0% and the “% of mice” value [2, 20] was 0%. For the same molecule, the “% of mice” value ([2]; Low-Lignan gp (600 μg/day), age wk 14) was 17%, the “% of mice” value [2, 21] was 21% and the “% of mice” value ([2]; Low-Lignan gp (600 μg/day), age wk 16) was 21%. For the same molecule, the “% of mice” value [2, 22] was 23%, the “% of mice” value ([2]; Low-Lignan gp (600 μg/day), age wk 18) was 38% and the “% of mice” value [2, 23] was 38%. The “% of mice” value ([2]; Low-Lignan gp (600 μg/day), age wk 20) was 38%, the “% of mice” value [2, 24] was 27% and the “% of mice” value ([2]; Low-Lignan gp (600 μg/day), age wks 6-8) was 0%. For the same molecule, the onset of proteinuria ([2]; low and high dosages) was “delay the onset of proteinuria”, the prevalence of proteinuria ([2]; low and high dosages) was “reduce the prevalence of proteinuria” and the “dose dependence of benefit on GFR” value ([3]; 600 and 1200 μg/day) was “dose-dependant benefit”. For the same molecule, the GFR ([3]; High-Lignan (1200 μg/day), 14 wks of age, n = 9) was 8.09 ± 2.74 ml/min/kg body weight, the GFR ([3]; High-Lignan (1200 μg/day), 22 wks of age, n = 10) was 5.33 ± 3.16 ml/min/kg body weight and the GFR ([3]; Low-Lignan (600 μg/day), 14 wks of age, n = 10) was 7.41 ± 3.88 ml/min/kg body weight. The GFR ([3]; Low-Lignan (600 μg/day), 22 wks of age, n = 10) was 4.81 ± 1.49 ml/min/kg body weight, the “decline of renal function (GFR)” value ([3]; compared to vehicle treated control group) was “attenuates the decline of renal function (GFR)” and the “reducing cell proliferation, a marker of immune and inflammatory activity” value ([4]; Examples 5 and 6 taken together) was “moderate benefits”. For the same molecule, the “cervical lymph node weights” value ([4]; High-Lignan (1200 μg/day), 14 wks of age) was 71 ± 65 mg, the “cervical lymph node weights” value ([4]; High-Lignan (1200 μg/day), 22 wks of age, a,b: significantly greater than baseline and than 14 week values) was 211 ± 58 mg and the “cervical lymph node weights” value ([4]; Low-Lignan (600 μg/day), 14 wks of age, a: significantly greater than baseline) was 97 ± 69 mg. The “cervical lymph node weights” value ([4]; Low-Lignan (600 μg/day), 22 wks of age, a: significantly greater than baseline) was 251 ± 91 mg, the “increase in lymph node weight” value ([4]; high dose (1200 μg/day), at/up to 14 weeks of age, Kruskal-Wallis) was “attenuated the increase in lymph node weight” and the “spleen weight index in the different groups” value ([5]; 600 and 1200 μg/day, ANOVA, Bonferroni t-tests) was “no significant difference”. For the same molecule, the “Spleen Weight/Body Weight Ratio (×100)” value ([5]; High-Lignan (1200 μg/day), 14 wks of age, marked a) was 0.77 ± 0.26, the “Spleen Weight/Body Weight Ratio (×100)” value ([5]; High-Lignan (1200 μg/day), 22 wks of age, marked a,b) was 1.74 ± 0.35 and the “Spleen Weight/Body Weight Ratio (×100)” value ([5]; Low-Lignan (600 μg/day), 14 wks of age, marked a) was 0.93 ± 0.33. The “Spleen Weight/Body Weight Ratio (×100)” value ([5]; Low-Lignan (600 μg/day), 22 wks of age, marked a,b) was 1.89 ± 0.39, the “spleen weight gain compared to other groups” value ([5]; high dose SDG group, 14 weeks age-interval) was “moderately smaller spleen weight gain” and the “conversion in the gut after oral administration” value [6] was “converted to secoisolariciresinol in the gut”. For the same molecule, the metabolism on ingestion ([7]; enzymatic hydrolysis and intestinal microflora) was “enzymatically hydrolyzed to the aglycone and transformed by intestinal microflora into enterodiol and enterolactone”, the “absorption across the gut wall” value ([7]; generally accepted for diglycosides) was “not absorbed across the gut wall” and the “water solubility compared with Seco” value [8] was “greater water solubility”.

For `CC/C=C\C/C=C\C/C=C\CCCCCCCC(=O)O` [alpha-linolenic acid], the LDL cholesterol [9] is listed as “lower”, the “PAF production by PMN leucocytes” value [9] is listed as “lower” and the cell mediated immunity [9] is listed as “lower”. The platelet aggregation [9] was “lower”.

In the case of `OC[C@H](Cc1cccc(O)c1)[C@H](CO)Cc1cccc(O)c1` [enterodiol], the “mammalian lignans in the urine” value [10] is reported as “only traces”.

For `COc1cc(CC(CO)C(CO)Cc2ccc(O)c(OC)c2)ccc1O` (stereo not drawn) [secoisolariciresinol], the “secoisolariciresinol concentrations in the urine” value [10] was “SDG dose dependent”.
